Data: PubChem BioAssay (NCI)
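96-well plates; 48 h exposure; 5 concentrations. Endpoints by linear interpolation between flanking doses. Not reached: highest tested concentration assigned. The concentration for 50% growth inhibition is given as GI50. TGI is the concentration that stops growth completely.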

Columns and labels:
Experiment in all cases: DTP human tumour cell line panel, 48 h
SK-MEL-28 melanoma = tested on: SK-MEL-28 melanoma
RXF 393 renal = tested on: RXF 393 renal
DU-145 prostate = tested on: DU-145 prostate
NCI/ADR-RES ovarian = tested on: NCI/ADR-RES ovarian
COLO 205 colon = tested on: COLO 205 colon
PC-3 prostate = tested on: PC-3 prostate
UO-31 renal = tested on: UO-31 renal
SK-OV-3 ovarian = tested on: SK-OV-3 ovarian
UACC-257 melanoma = tested on: UACC-257 melanoma
TK-10 renal = tested on: TK-10 renal

Row | SMILES | GI50 (SK-MEL-28 melanoma) | TGI (SK-MEL-28 melanoma) | GI50 (RXF 393 renal) | TGI (RXF 393 renal) | GI50 (DU-145 prostate) | TGI (DU-145 prostate) | GI50 (NCI/ADR-RES ovarian) | TGI (NCI/ADR-RES ovarian) | GI50 (COLO 205 colon) | TGI (COLO 205 colon) | GI50 (PC-3 prostate) | TGI (PC-3 prostate) | GI50 (UO-31 renal) | TGI (UO-31 renal) | GI50 (SK-OV-3 ovarian) | TGI (SK-OV-3 ovarian) | GI50 (UACC-257 melanoma) | TGI (UACC-257 melanoma) | GI50 (TK-10 renal) | TGI (TK-10 renal)
1 | OCc1ccc(N2CCc3ccccc3C2)cc1Cl | 23 µM | > 82.9 µM | 13.5 µM | 28.8 µM | 2.38 µM | 22.3 µM | 5.13 µM | 39.8 µM | 0.0136 µM | 0.0619 µM | 17.2 µM | > 62.3 µM | 8.28 µM | 55.8 µM | 0.754 µM | 8.95 µM |  |  |  | 
2 | CCN1Cc2nc3sc(C)c(C)c3c(=O)n2C=C1C | 6.65 µM | 21.3 µM |  |  | 7.7 µM | 23 µM | 5.12 µM | 79.6 µM | 24.4 µM | > 100 µM | 4.07 µM | > 100 µM | 5.29 µM | > 100 µM | 74.1 µM | > 100 µM | 4.56 µM | 17.6 µM | 15.1 µM | 83.4 µM
3 | CCNC(=O)O/N=C1\CCC2[C@@H]3CC=C4C[C@@H](OC5CCCCO5)CC[C@]4(C)C3CC[C@]12C (some centres undefined) |  | 10.8 µM |  | 5.64 µM |  |  |  |  |  |  |  |  |  | 2.85 µM |  | 17.3 µM |  | 4.41 µM |  | 3.81 µM
4 | CC(=O)[CH-]C(=O)c1ccccc1.CC(=O)[CH-]C(=O)c1ccccc1.C[C@]12CCC(=O)C=C1CC[C@@H]1C2CC[C@@]2(C)C1CC[C@@H]2[O-].C[C@]12CCC(=O)C=C1CC[C@@H]1C2CC[C@@]2(C)C1CC[C@@H]2[O-].Cl.[Ti+4] (some centres undefined) | 32.9 µM | > 100 µM | 16.2 µM | 31.9 µM |  |  |  |  | 37 µM | > 100 µM |  |  | 16.5 µM | 52.5 µM | 27 µM | 56.9 µM | 19.3 µM | 69.7 µM | 29.4 µM | > 100 µM
5 | Cc1ccc(S(=O)OCC23CC4CC(CC(C4)C2)C3)cc1 (centres undefined) |  | > 100 µM |  | > 100 µM |  |  |  |  |  | > 100 µM |  |  |  | > 100 µM |  | > 100 µM |  | > 100 µM |  | > 100 µM
6 | COc1ccc2nc3cc(Cl)ccc3c(Sc3ccc([N+](=O)[O-])cc3)c2c1 | > 100 µM | > 100 µM | > 100 µM | > 100 µM |  |  |  |  | > 100 µM | > 100 µM |  |  | > 100 µM | > 100 µM | > 100 µM | > 100 µM | > 100 µM | > 100 µM | > 100 µM | > 100 µM
7 | CC(=O)NC1C(OCc2ccccc2)OC(COC(=O)CCCCCCCCCCNc2ccc([N+](=O)[O-])c3[nH]c4ccccc4c(=O)c23)C(O)C1OC(C)C(=O)NC(C)C(=O)NC(CCC(N)=O)C(=O)OCc1ccccc1 (centres undefined) |  | > 100 µM |  |  |  |  |  |  |  | > 100 µM |  |  |  | > 100 µM |  | > 100 µM |  | > 100 µM |  | > 100 µM
8 | Oc1cc2ccccc2c(-c2c(O)c(O)cc3ccccc23)c1O | 3.37 µM | 20.7 µM |  |  | 2.29 µM | 15.4 µM | 1.83 µM | 12.4 µM | 2.06 µM | 8.95 µM | 2.17 µM | > 52.2 µM | 0.512 µM | 6.41 µM | 1.68 µM | 17.3 µM | 3.24 µM | 24.3 µM | 1.38 µM | 30.9 µM
9 | O=C(COC(=O)c1cccc2c(=O)c3ccccc3[nH]c12)Nc1ccc(C(=O)O)cc1 |  | > 100 µM |  | > 100 µM |  |  |  |  |  | > 100 µM |  |  |  | > 100 µM |  | > 100 µM |  | > 100 µM |  | > 10 µM
10 | COC1=CC(c2ccc[nH]2)=N/C1=C\c1[nH]c(C)c(C(=O)CCCCC(=O)Oc2ccc3c(c2)CCC2C3CC[C@]3(C)[C@@H](O)CC[C@@H]23)c1C (some centres undefined) | > 100 µM | > 100 µM | 25.8 µM | > 100 µM | 9.57 µM | > 100 µM | > 100 µM | > 100 µM | > 100 µM | > 100 µM |  |  | 5.08 µM | > 100 µM | > 100 µM | > 100 µM | > 100 µM | > 100 µM | 33.8 µM | > 100 µM
11 | COc1cc([N+](=O)[O-])c(OC)cc1-c1nc2sc(Cl)cn2c1/C=N/NC1=NCCN1 |  |  |  |  | 0.306 µM | 1.14 µM | > 100 µM | > 100 µM | 1.33 µM | 3.7 µM | 1.71 µM | 3.16 µM | 0.966 µM |  | 1.88 µM | 3.48 µM | 2.23 µM | 4.43 µM | 1.89 µM | 3.36 µM
12 | NCC1OC(OC2C(CO)OC(OC3C(O)C(N)CC(N)C3OC3OC(CO)C(O)CC3N)C2O)C(N)C(O)C1OC1OC(CO)C(O)C(O)C1O (centres undefined) | > 50 µg/mL | > 50 µg/mL |  |  | > 50 µg/mL | > 50 µg/mL | > 50 µg/mL | > 50 µg/mL | > 50 µg/mL | > 50 µg/mL | > 50 µg/mL | > 50 µg/mL | > 50 µg/mL | > 50 µg/mL | > 50 µg/mL | > 50 µg/mL | > 50 µg/mL | > 50 µg/mL | > 50 µg/mL | > 50 µg/mL
13 | COc1ccc(Nc2cc(C)nc(NCCCNc3ccnc4cc(Cl)ccc34)n2)cc1 | 1.65 µM | 3.16 µM |  |  | 3.4 µM | 10.7 µM | 2.38 µM | 6.27 µM | 1.58 µM | 3.22 µM | 2.35 µM | 9.9 µM | 1.52 µM | 2.95 µM | 1.67 µM | 3.2 µM | 1.84 µM | 3.51 µM | 1.89 µM | 3.41 µM
14 | Clc1cc(Cl)cc(N2N=C(c3cccc(Nc4ccncc4)c3)CC2c2ccc3c(c2)OCO3)c1 (centres undefined) | 1.84 µM | 3.36 µM |  |  | 1.71 µM | 3.13 µM |  |  | 1.87 µM | 3.88 µM | 1.59 µM | 3.18 µM | 1.36 µM | 2.67 µM | 2.54 µM | 8.38 µM |  |  |  | 
15 | OCc1c[te]c(-c2ccccc2)c1 |  | > 100 µM |  | > 100 µM |  |  |  |  |  |  |  |  |  | 79.4 µM |  | > 100 µM |  | > 100 µM |  | > 100 µM
16 | NN1C(=O)C(CCO)S/C1=N/N=C1/SC(CCO)C(=O)N1N (centres undefined) |  | > 100 µM |  | > 100 µM |  |  |  |  |  | > 100 µM |  |  |  | > 100 µM |  | > 100 µM |  | > 100 µM |  | 
